Patent US7790896B2, “RNA-selective probes for live cell imaging of nuclear structure and function” (New York University, priority 2006, dated 2010)

Legend:
3T3 cells = assay: Cytotoxicity test, MTS assay; type: cell-based
Method: Dye DMSO stock solutions were diluted by fresh medium into four desired concentrations ([…], 13.5 μM, 10 μM and 5 μM). Cells were cultured in 96-well plate for 12 hours before experiments. The cell medium was then exchanged with different concentrations of dye medium solutions. Cells were incubated at 37° C. in 5% CO2 for 5, 15, or 24 hours before viability by MTS assay was measured. As for the MTS assay, briefly, 3-(4,5-dimethylthiazol-2-yl)-5-(3-carboxymethoxyphenyl)-2-(4-sulfophenyl)-2H-tetrazolium (MTS) and phenazine methosulfate (PMS) were mixed at a ratio of 20:1 right before the experiments. The cell dye medium solution was exchanged with 80 μL of fresh medium followed by the addition of 20 μL MTS/PMS solution to each well. 100 μM hydrogen peroxide was used as positive control. The cell plates were then incubated at 37° C. in 5% CO2 for 2 hours. Absorbance was measured at 490 nm. The absorbance measured for an untreated cell population under the same experimental conditions was used as the reference point to establish 100% cell viability. Duplicated experiments have been tested.
(20 μM, 13.5 μM, 10 μM, and 5 μM) in A549 and 3T3 cells and the cytotoxicity was measured using standard MTS assay after 5, 15, or 24 hours incubation (FIG. 5A). Generally, there was no toxicity (defined by greater than 50% cell death) associated with any of the dyes at the working concentration (5 μM) after 24 hours incubation. In A549 cell, all three dyes were non-toxic after 24 hours incubation at all concentrations. In 3T3 cells, E144 was non-toxic, but 20 μM of E36 was toxic after 24 hours incubation and 20 μM F22 was toxic after 15 hours incubation. Since the compounds bind to RNA, it is not surprising to see some signs of toxicity at higher concentrations, especially after one doubling period (approximately 22 hours for A549 cells and 20-25 hours for 3T3 cells). […] Additional studies are required to determine if the compounds perturb nucleolar dynamics throughout the cells cycle.

[1] = test system: RNA (16S- and 23S-ribosomal from E. coli) vs. DNA (salmon testes); assay: RNA vs. DNA selectivity titration in solution; type: binding; conditions: E36 5 μM, E144 10 μM, F22 10 μM; nucleic acid 0.195 to 200 μg/mL
Method: Samples containing 50 μg/mL RNA in TE buffer with an increasing concentration of compound from 0.15 μM to 10 μM. Shown here is the intensity increase recorded at the emission λmax wavelength of each dye. […] The samples contain fixed concentration of dyes (E36: 5 μM; E144: 10 μM; F22: 10 μM) in TE buffer with an increasing concentration of RNA or DNA from 0.19 μg/mL to 200 μg/mL. Data points were in duplicated in individual experiments, and error bars represent standard deviation.
The fluorescence spectra data in the primary screening and selected dyes titration assay study was obtained by Gemini XS plate reader. RNA solution was prepared right before the assay experiments to avoid possible degradation and contamination. In the primary screening, 1 mg/mL RNA (type VI from torula yeast) buffer solution was used. Point scans were carried out first using five Ex/Em point sets ([…], 400/500, 450/550, 500/600, 550/650 nm). Spectra scans were then carried out for the selected dyes. Excitation wavelengths were set at 350 nm, 400 nm, 450 nm, 500 nm, and 550 nm and the emission wavelengths were scanned. RNA (16S- and 23S-ribosomal from E. coli) and DNA (salmon testes) titration experiments and quantum yield/extinction coefficient determination for the three best dyes were carried out by the plate reader as well. Excitation λmax obtained from F-2500 Hitachi Fluorophotometer was used. Absorbance wavelength was determined by SpectraMax Plus^384 absorbance plate reader. […] was chosen as standard and 480 nm was used as excitation wavelength in the scanning for quantum yield determination.
A set of solution assay experiments were then carried out to investigate the dyes' selectivity to bind RNA vs. DNA in vitro. With a fixed concentration of dye (E36 5 μM, E144 10 μM, and F22 10 μM), the fluorescent intensity at various nucleic acid concentrations (0.195 μg/mL to 200 μg/mL) was determined at the appropriate emission λmax wavelength. SYTO®RNASelect (5 μM) and Hoechst 33258 (5 μM) dyes were used as standards for RNA selective and DNA selective dyes (FIG. 3B).

[2] = test system: Fixed-permeabilized Hela cells; assay: DNase and RNase digest test; type: cell-based, human; conditions: dye 50 μM, 2 hours; for Fluorescence after RNase digest: 25 μg/mL DNase-Free RNase; for Fluorescence after DNase digest: 30 μg/mL DNase
Method: Cells were first fixed using cold (−4° C.) pure methanol for 1 minute at ambient temperature. The cell membrane was then permeabilized by immersion in 1% Triton X-100 for 2 minutes. After rinsing with PBS twice, 100 μL of 50 μM dye PBS solution was added to three adjacent wells. Cells were then incubated in this dye PBS solution for 15 minutes in ambient temperature before being rinsed with clean PBS twice. 100 μL clean PBS (as control experiment), 30 μg/mL DNase (Sigma), or 25 μg/mL DNase-Free RNase (GE) was added to the three adjacent wells and incubated at 37° C. in 5% CO2 for 2 hours. Cells were rinsed with clean PBS twice before imaging. For each dye test, the fluorescent images were obtained using equal exposure time for control, DNase and RNase experiments. DAPI (10 μM) in PBS and SYTO®RNASelect (5 μM) in PBS solution were used for dual staining experiments. Duplicate experiments have been tested.
To further confirm that the compounds selectively bind RNA, a deoxyribonuclease (DNase) and ribonuclease (RNase) digest test was performed. In DNase digest, only the DNAs in the cell would be hydrolyzed. By contrast, in RNase digest, only RNAs would be hydrolyzed. Fixed-permeabilized Hela cells were used in this experiment and DAPI and SYTO®RNASelect were used as control dyes (FIG. 6). […] Still, its higher RNA-selective binding in live cell might be due to the complicated in vivo live cell environment, which may preferably direct this dye to nucleoli.

SMILES | Cytotoxicity (toxic = greater than 50% cell death) (3T3 cells; 20 μM, 24 hours incubation) | Fluorescent intensity response to RNA vs. DNA [1] | Fluorescence after RNase digest [2] | Fluorescence after DNase digest [2] | Cytotoxicity (toxic = greater than 50% cell death) (3T3 cells; 20 μM, 15 hours incubation) | Cytotoxicity (toxic = greater than 50% cell death) (3T3 cells; 20, 13.5, 10 and 5 μM, 5, 15 or 24 hours)
C[n+]1c(/C=C/c2c[nH]c3ccccc23)ccc2ccccc21 [Dye E36] | toxic | higher response to RNA than to DNA | dramatically diminished | stayed almost the same | – | –
COc1ccc2c(ccc(/C=C/c3ccc(N(C)C)cc3)[n+]2C)c1 [Dye F22] | – | higher response to RNA than to DNA | overall decrease in intensity | nucleolar stain remained bright | toxic | –
COc1cc(OC)c(/C=C/c2ccc3ccccc3[n+]2C)c(OC)c1 [Dye E144] | – | almost same binding affinity to both RNA and DNA | not detectable | not detectable | – | non-toxic
